In the NIST ThermoML archive (doi:10.1016/j.tca.2008.10.017):

Assay: molar heat capacity at constant pressure
Details: 101.33 kPa, Crystal 2, Small (less than 1 g) adiabatic calorimetry

CCCC[N+](CCCC)(CCCC)CCCC.[I-] [tetrabutylammonium iodide]
Details	molar heat capacity at constant pressure [J/K/mol]
5 K	0.875
5.6 K	0.546
5.7 K	0.62
5.82 K	0.735
5.88 K	0.786
6.15 K	1.05
6.33 K	1.24
6.6 K	1.54
6.69 K	1.67
6.89 K	1.87
6.98 K	2.05
7.07 K	2.12
7.26 K	2.39
7.35 K	2.49
7.45 K	2.68
7.54 K	2.82
7.74 K	3.02
8.03 K	3.55
8.14 K	3.66
8.24 K	3.76
8.45 K	4.16
8.55 K	4.34
8.66 K	4.58
8.77 K	4.69
8.87 K	4.87
9.09 K	5.28
9.2 K	5.43
9.42 K	5.78
9.53 K	5.96
9.76 K	6.52
9.87 K	6.76
9.98 K	6.85
10 K	6.91
10.26 K	7.37
10.71 K	8.33
11.16 K	9.2
11.61 K	10.3
12.08 K	11.3
12.55 K	12.5
13.04 K	13.6
13.53 K	14.9
14.03 K	16
14.54 K	17.2
15.05 K	18.56
15.57 K	19.98
16.09 K	21.47
16.61 K	22.94
17.14 K	24.46
17.67 K	25.9
18.2 K	27.48
18.76 K	29
19.31 K	30.77
19.85 K	32.46
20 K	32.91
20.98 K	35.93
22.55 K	40.49
24.16 K	45.21
25.78 K	49.77
27.42 K	54.6
29.07 K	59.44
30 K	62.21
30.73 K	64.36
32.39 K	69.26
34.07 K	74.01
35.76 K	78.8
37.45 K	83.46
39.15 K	87.9
40 K	90.12
40.85 K	92.36
42.56 K	96.45
44.26 K	100.6
45.97 K	104.7
47.72 K	108.8
49.44 K	112.6
50 K	113.7
51.16 K	116.5
52.88 K	120.1
54.61 K	123.5
56.34 K	127.3
58.07 K	131
59.8 K	134.9
60 K	135.4
61.53 K	138.8
63.27 K	142.4
65.01 K	146.4
66.75 K	150
68.49 K	153.6
70 K	156.1
72.19 K	159.7
74.35 K	163.7
76.49 K	167.2
78.63 K	170.6
80 K	172.8
80.76 K	173.7
82.88 K	177.6
84.02 K	179.7
85.33 K	181.8
87.83 K	185.8
89.91 K	189.2
90 K	189.7
91.99 K	192.3
94.06 K	195.1
96.13 K	198.4
98.18 K	201.3
100 K	204.1
100.24 K	204.2
102.48 K	208.5
104.92 K	211.3
107.37 K	214.8
109.82 K	217.8
110 K	217.9
112.27 K	220.9
114.75 K	224.1
117.24 K	227.3
119.7 K	230.1
120 K	230.8
122.11 K	233.2
124.58 K	236.3
127.05 K	239.3
129.51 K	242.1
130 K	242.9
131.98 K	245.1
134.46 K	248.1
136.93 K	251
139.4 K	253.8
140 K	254.4
141.88 K	256.5
144.36 K	259.3
146.84 K	262.3
149.32 K	264.6
150 K	265.4
151.8 K	267.5
154.28 K	270.5
156.76 K	273
159.25 K	275.4
160 K	276.3
161.68 K	277.9
164.17 K	280.8
166.66 K	283.6
169.14 K	286.4
170 K	287.1
171.63 K	288.8
174.12 K	291.3
179.09 K	296.7
180 K	297.8
181.58 K	299.2
184.06 K	302
186.55 K	304.6
189.03 K	307.5
190 K	308.6
191.52 K	310
194 K	312.6
196.48 K	315.8
198.96 K	318.2
200 K	319.4
201.37 K	321.1
203.83 K	324
206.3 K	326.7
208.78 K	329.1
210 K	330.4
211.25 K	332.3
213.73 K	334
216.22 K	337
218.7 K	339.9
220 K	341.7
221.19 K	342.7
223.68 K	345.9
226.17 K	348.6
228.67 K	351.6
230 K	353.2
231.16 K	354.6
233.66 K	357.7
235.16 K	359.3
237.7 K	362.3
238.66 K	363.9
240 K	365.1
241.12 K	366.7
243.63 K	369.8
246.14 K	372.6
248.65 K	375.9
250 K	377.4
251.17 K	379.2
253.68 K	382.1
256.2 K	385.3
258.72 K	388.5
260 K	390.2
261.24 K	392
263.76 K	395.2
266.29 K	398.2
268.81 K	401.5
270 K	403.3
271.34 K	405
273.15 K	407.6
273.87 K	408.1
276.4 K	411.5
278.93 K	415
280 K	416.9
281.43 K	418.6
283.96 K	421.7
286.49 K	425.5
289.02 K	429.5
290 K	430.8
291.54 K	433.4
294.07 K	436.3
296.58 K	439.9
298.15 K	442.5
299.1 K	443.6
300 K	445.2
301.98 K	449.2
305.32 K	453.3
308.64 K	459.7
310 K	460.1
311.93 K	464
315.18 K	468.4
318.42 K	473.1
320 K	475.7
321.63 K	477.8
324.82 K	483
327.99 K	488.3
330 K	492.4
331.13 K	493.9
334.25 K	499.5
337.34 K	505.8
340 K	511
340.41 K	511.9
343.45 K	518.1
346.47 K	524.6
349.45 K	530.9
350 K	532.3
352.15 K	537.6
